{"source": "patent US11773368B2", "about": "“Culture method for differentiating primordial germ cells into functionally mature oocytes” (TOKYO UNIVERSITY OF AGRICULTURE, priority 2015, dated 2023)", "key": {"[1]": {"test_system": "primordial germ cells in gonads from female mouse fetuses at 12.5 dpc", "test": "In vitro organ culture of gonad (secondary follicle formation)", "type": "cell-based", "method": "For the medium of the organ culture, the basal medium supplemented with FBS (Gibco, Thermo Fisher Scientific Inc.), SPS (SAGE In vitro Fertilization), the estrogen receptor antagonist, 7α, 17β-[9-([4,4,5,5,5-pentafluoropentyl]sulfinyl)nonyl]estra-1,3,5(10)-triene-3,17-diol; ICI 182,780 (ICI; Tocris Bioscience), 4-hydroxytamoxifen (Sigma-Aldrich), and MPP (Methylpiperidino pyrazole; Cayman Chemical) were added at the indicated concentrations for each experimental group below. The α-MEM medium (Gibco, Thermo Fisher Scientific Inc.) supplemented with 1.5 mM 2-O-α-d glucopyranosyl-1-ascorbic acid (Tokyo Chemical Industry), 10 units/mL penicillin, and 10 μg/mL streptomycin (Sigma-Aldrich) was used as a basal medium (referred to the basal medium hereafter as α-MEM).\nICI 182,780 and 4-hydroxytamoxifen was prepared as follows. ICI 182,780 and 4-hydroxytamoxifen was diluted to 100 mM using DMSO, and cryopreserved stock was prepared. MPP was diluted to 10 mM using DMSO, and cryopreserved stock was prepared. 1 mM solutions of ICI 182, 780 and 4-hydroxytamoxifen were prepared by diluting the 100 mM stocks 100-fold with DMSO just before use and were added to the medium at the indicated final concentrations for each experimental group. MPP was added to the medium at 1 μM as the final concentration just before use.\nThe gonads for the organ culture were collected with mesonephros or without mesonephros from female mouse fetuses at 12.5 dpc (FIG. 1a). 2.2 ml of the medium was added to each 6-well culture plate used for the organ culture. Transwell®-COL membrane (3.0-μm pore size, 24-mm diameter; Corning) was put on each well of the 6-well culture plate. The gonads were transferred on the membrane and were cultured for 17 days at 37° C. under 5% CO2 and 95% air. Approximately half of the medium in each well was replaced with fresh medium every other day. In the example in which the gonad was cultured with mesonephros, mesonephros was removed from the gonad at day 7 of the organ culture.\nThe in vitro organ culture of the gonads was performed according to the following conditions described below. The gonads were cultured for total 17 days in each conditions below (FIG. 2):\n(i) culture for the complete 17 days period in 10% FBS containing α-MEM (α-MEM+FBS; FBS group);\n(ii) culture for the complete 17 days period in 10% SPS containing α-MEM (α-MEM+SPS; SPS group);\n(iii) culture for the complete 17 days period in 10% KSR containing α-MEM (α-MEM+KSR; KSR group);\n(iv) culture in 10% FBS containing α-MEM for 4 days with a shift to 10% SPS containing α-MEM for 6 days from day 5 and a shift to 10% FBS containing α-MEM until day 17 from day 11 (αMEM+FBS/SPS; FBS/SPS group);\n(v) culture in 10% FBS containing α-MEM for 4 days with a shift to 10% FBS containing α-MEM with the addition of 10 nM, 100 nM, 1 μM, 5 μM, or 10 μM (final concentration) ICI for 6 days from day 5 and a shift to 10% FBS containing α-MEM until day […] (αMEM+FBS/10 nM ICI; FBS/10 nM ICI group, αMEM+FBS/100 nM ICI; FBS/100 nM ICI group, αMEM+FBS/1 μM ICI; FBS/1 μM ICI group, αMEM+FBS/5 μM ICI; FBS/5 μM ICI group, or αMEM+FBS/10 μM ICI; FBS/10 μM ICI group);\n(vi) culture in 10% FBS containing α-MEM for 4 days with a shift to 10% FBS containing α-MEM with the addition of 1 μM (final concentration) 4-hydroxytamoxifen for 6 days from day 5 and a shift to 10% FBS containing α-MEM until day 17 from day 11 (αMEM+FBS/1 μM Tamoxifen; FBS/1 μM Tamoxifen group);\n(vii) culture in 10% FBS containing α-MEM for 4 days with a shift to 10% FBS containing α-MEM with the addition of 1 μM (final concentration) MPP for 6 days from day 5 and a shift to 10% FBS containing α-MEM until day 17 from day 11 (αMEM+FBS/1 μM MPP; FBS/1 μM MPP group).\nVitrification and warming were conducted as follows by reference to Wang, X. et al., “Successful in vitro culture of pre-antral follicles derived from vitrified murine ovarian tissue: oocyte maturation, fertilization, and live births.” Reproduction 141, 183-191 (2011). […]"}, "in vitro-matured eggs": {"test_system": "in vitro-matured eggs", "test": "In vitro fertilization and embryo transfer with in vitro-mature egg", "type": "cell-based, mouse", "method": "After 17 hours of the culture, the eggs with expanded cumulus cells were transferred into TYH medium (LSI Medience Corporation) and fertilized with epididymal sperm. In (ii) SPS group, (iv) FBS/SPS group, (v) FBS/ICI group, about 27 to 58% of eggs which processed for in vitro fertilization (IVF) were normally fertilized. Normally fertilized eggs with 2 pronuclei were cultured in KSOM medium. About 83 to 97% Embryos from the fertilized eggs developed to the 2-cell stage. The embryos developed to the 2-cell stage by the culture were transferred into the oviducts of pseudopregnant females at 0.5 dpc. Offspring were delivered by natural means or by caesarean section at 19.5 dpc. As a result, about 14 to 40% of the transferred embryos developed to offspring. The obtained offspring were raised by foster mothers. The offspring were weaned at about 4 weeks of age. […] As mentioned above, there has been no report that eggs obtained by in vitro culture in which the primordial germ cell was used as the starting material developed to offspring. […] In in vitro culture method for producing the functional egg from the primordial germ cell according to this invention, seven pups from one ovary were obtained at a maximum, and on average, 0.3 to 3.3 pups were obtained from one ovary. Pups were physically normal, and they developed normally. Male and female mice developed from eggs differentiated and matured in in vitro culture could produce the offspring after sexual maturation (Table. 2 and FIG. 12)."}, "[2]": {"conditions": "FBS/1 μM ICI group (ICI day 5-11), 19 cultured gonads"}, "[3]": {"conditions": "FBS/5 μM ICI group (ICI day 5-11), 6 cultured gonads"}, "[4]": {"conditions": "FBS/10 μM ICI group (ICI day 5-11), 6 cultured gonads"}, "[5]": {"conditions": "Vitrification FBS/1 μM ICI (vitrified-warmed gonads), 4 cultured gonads"}, "[6]": {"conditions": "FBS/1 μM ICI group (ICI day 5-11)"}, "[7]": {"conditions": "FBS/5 μM ICI group (ICI day 5-11)"}, "[8]": {"conditions": "FBS/10 μM ICI group (ICI day 5-11)"}, "[9]": {"conditions": "Vitrification FBS/1 μM ICI (vitrified-warmed gonads)"}}, "note": "“Also recorded” adds a separate entry of the source."}
{"smiles": "C[C@]12CC[C@@H]3c4ccc(O)cc4C[C@@H](CCCCCCCCC[S+]([O-])CCCC(F)(F)C(F)(F)F)[C@H]3[C@@H]1CC[C@@H]2O", "note": "(stereo partly drawn) [ICI, 7α, 17β-[9-([4,4,5,5,5-pentafluoropentyl]sulfinyl)nonyl]estra-1,3,5(10)-triene-3,17-diol]", "values": [{"measurement": "follicle morphology of the ovary under an optical microscope", "setting": "[1]; (v) FBS/ICI group, FIG. 3d (10 μM ICI)", "value": "abnormalities were significantly improved"}, {"measurement": "number of the collected secondary follicles", "setting": "[1]; (v) ICI group, 10 nM, 100 nM, 1 μM, 5 μM or 10 μM ICI day 5-11, FIG. 4", "value": "increased depending on the ICI concentration; also recorded: significantly increased compared to FBS group"}, {"measurement": "No. of collected follicles", "setting": "[1]; [2]", "value": 641}, {"measurement": "No. of collected follicles", "setting": "[1]; [3]", "value": 312}, {"measurement": "No. of collected follicles", "setting": "[1]; [4]", "value": 505}, {"measurement": "No. of collected follicles", "setting": "[1]; [5]", "value": 57}, {"measurement": "follicles obtained from one ovary", "setting": "[1]; vitrified and warmed gonads, FBS/1 μM ICI conditions", "value": "about 14"}, {"measurement": "No. of eggs fertilized normally, proportion to the number of collected follicles", "setting": "in vitro-matured eggs; [6]", "value": 26.2, "unit": "%"}, {"measurement": "No. of embryos developed to two-cell, proportion to the number of collected follicles", "setting": "in vitro-matured eggs; [6]", "value": 24.2, "unit": "%"}, {"measurement": "No. of pups developed from embryos, proportion to the number of collected follicles", "setting": "in vitro-matured eggs; [6]", "value": 4.8, "unit": "%"}, {"measurement": "No. of pups from an ovary", "setting": "in vitro-matured eggs; [6]", "value": 1.6}, {"measurement": "No. of eggs fertilized normally", "setting": "in vitro-matured eggs; [2]", "value": 168}, {"measurement": "No. of embryos developed to two-cell", "setting": "in vitro-matured eggs; [2]", "value": 155}, {"measurement": "No. of pups developed from embryos", "setting": "in vitro-matured eggs; [2]", "value": 31}, {"measurement": "No. of eggs fertilized normally, proportion to the number of collected follicles", "setting": "in vitro-matured eggs; [7]", "value": 30.1, "unit": "%"}, {"measurement": "No. of embryos developed to two-cell, proportion to the number of collected follicles", "setting": "in vitro-matured eggs; [7]", "value": 29.2, "unit": "%"}, {"measurement": "No. of pups developed from embryos, proportion to the number of collected follicles", "setting": "in vitro-matured eggs; [7]", "value": 6.4, "unit": "%"}, {"measurement": "No. of pups from an ovary", "setting": "in vitro-matured eggs; [7]", "value": 3.3}, {"measurement": "No. of eggs fertilized normally", "setting": "in vitro-matured eggs; [3]", "value": 94}, {"measurement": "No. of embryos developed to two-cell", "setting": "in vitro-matured eggs; [3]", "value": 91}, {"measurement": "No. of pups developed from embryos", "setting": "in vitro-matured eggs; [3]", "value": 20}, {"measurement": "No. of eggs fertilized normally, proportion to the number of collected follicles", "setting": "in vitro-matured eggs; [8]", "value": 29.3, "unit": "%"}, {"measurement": "No. of embryos developed to two-cell, proportion to the number of collected follicles", "setting": "in vitro-matured eggs; [8]", "value": 27.3, "unit": "%"}, {"measurement": "No. of pups developed from embryos, proportion to the number of collected follicles", "setting": "in vitro-matured eggs; [8]", "value": 3.8, "unit": "%"}, {"measurement": "No. of pups from an ovary", "setting": "in vitro-matured eggs; [8]", "value": 3.2}, {"measurement": "No. of eggs fertilized normally", "setting": "in vitro-matured eggs; [4]", "value": 148}, {"measurement": "No. of embryos developed to two-cell", "setting": "in vitro-matured eggs; [4]", "value": 138}, {"measurement": "No. of pups developed from embryos", "setting": "in vitro-matured eggs; [4]", "value": 19}, {"measurement": "No. of eggs fertilized normally, proportion to the number of collected follicles", "setting": "in vitro-matured eggs; [9]", "value": 33.3, "unit": "%"}, {"measurement": "No. of embryos developed to two-cell, proportion to the number of collected follicles", "setting": "in vitro-matured eggs; [9]", "value": 26.3, "unit": "%"}, {"measurement": "No. of pups developed from embryos, proportion to the number of collected follicles", "setting": "in vitro-matured eggs; [9]", "value": 3.5, "unit": "%"}, {"measurement": "No. of pups from an ovary", "setting": "in vitro-matured eggs; [9]", "value": 0.5}, {"measurement": "No. of eggs fertilized normally", "setting": "in vitro-matured eggs; [5]", "value": 19}, {"measurement": "No. of embryos developed to two-cell", "setting": "in vitro-matured eggs; [5]", "value": 15}, {"measurement": "No. of pups developed from embryos", "setting": "in vitro-matured eggs; [5]", "value": 2}]}
